Measurements from patent US10030016B2 (Sunesis Pharmaceuticals, Inc., priority 2009, dated 2018).
Structures can show the parent of a compound that is named as a salt. Where two headings read alike, the source gives them in different places.

How the values were obtained:
PDK1 = PDK1 (Homo sapiens (Human), UniProt O15530); test: PDK1 kinase assay (coupled PDK1/AKT/FAM-crosstide assay, IMAP fluorescence polarization); format: biochemical
Summary of the method: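 PDK1 activity is measured indirectly through activation of a PIFtide-fused AKT2 construct that phosphorylates FAM-crosstide (100 nM). The reaction uses 0.75 nM PDK1, 40 μM ATP, 30 min, 25° C, with IMAP polarization detection.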

[1] = test system: phospho-akt (Thr308) in PC-3 cells; test: Inhibition of phospho-akt (Thr308) in PC-3 cells, MSD phospho-akt 308 ELISA kit; format: cell-based; settings: Homo sapiens, 2 hours, no serum, read-out: EC50
Summary of the method: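 Phospho-Akt (Thr308) levels were measured by MSD ELISA after PC-3 cells received compound for 2 hours in serum-free medium. Controls: DMSO (high), 5 μM wortmannin (low).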

[2] = inhibition of phospo-PDK1 in vitro
[3] = inhibition of P308 Akt in PC-3 cells, MSD
[4] = inhibition of P308 Akt in PC-3 cells using MSD

Chain of PDK1 (O15530 51-359): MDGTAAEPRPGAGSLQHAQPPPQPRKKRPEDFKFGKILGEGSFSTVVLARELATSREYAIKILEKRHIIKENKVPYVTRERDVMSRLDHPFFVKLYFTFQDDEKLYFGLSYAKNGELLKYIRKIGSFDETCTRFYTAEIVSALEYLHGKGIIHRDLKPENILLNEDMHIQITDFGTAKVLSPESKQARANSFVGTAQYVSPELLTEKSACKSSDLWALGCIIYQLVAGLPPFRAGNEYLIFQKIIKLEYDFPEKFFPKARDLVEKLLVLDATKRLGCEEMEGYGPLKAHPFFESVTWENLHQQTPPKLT

IC50 (PDK1; [2]) | EC50 [1, 3] | IC50 (PDK1; inhibition of PDK1 in vitro) | EC50 [1, 4] | EC50 ([1]; PC-3, 2 h, inhibition of P308 Akt in PC-3 cells, MSD) | Compound
1000 to 5000 nM | > 10000 nM | – | – | – | Nc1ncnc2ccc(-c3csc(Nc4ncccc4C(=O)NCc4ccc(F)c(F)c4)n3)cc12 [Ex. 13, 2-(4-(4-aminoquinazolin-6-yl)thiazol-2-ylamino)-N-(3,4-difluorobenzyl)-nicotinamide]
– | – | < 100 nM | > 10000 nM | – | C[C@H](NC(=O)c1cc(C#N)cnc1NCc1ccc(-c2cnc(N)nc2)cc1)c1ccc(F)cc1 [Example 119, (S)-2-(4-(2-amino-pyrimidin-5-yl)benzylamino)-5-cyano-N-(1-(4-fluorophenyl)ethyl) nicotinamide]
– | – | > 5000 nM | > 10000 nM | – | C[C@H](NC(=O)c1cc(C#N)cnc1NCc1ccc(-c2cnc(NCCN(C)C)cn2)cc1)c1ccc(F)cc1 [Example 226, 5-Cyano-2-{4-[5-(2-dimethylamino-ethylamino)-pyrazin-2-yl]-benzylamino}-N-[(S)-1-(4-fluoro-phenyl)-ethyl]-nicotinamide]
1000 to 5000 nM | 1000 to 10000 nM | – | – | – | Nc1ncnc2ccc(-c3ccc(CNc4ncccc4C(=O)Nc4ccc(F)c(C(F)(F)F)c4)s3)cc12 [Example 3.51, 2-({[5-(4-aminoquinazolin-6-yl)thiophen-2-yl]methyl}amino)-N-[4-fluoro-3-(trifluoromethyl)phenyl]pyridine-3-carboxamide (TFA salt)]
< 100 nM | < 1000 nM | – | – | – | C[C@H](NC(=O)c1cccnc1NCCOc1ccc2c(c1)NC(=O)/C2=C\c1cnc[nH]1)c1ccc(F)c(F)c1 [Example 19.2, (S,Z)-2-(2-(3-((1H-imidazol-5-yl)methylene)-2-oxoindolin-6-yloxy)ethylamino)-N-(1-(3,4-difluorophenyl)ethyl)nicotinamide]
100 to 1000 nM | – | – | – | > 10000 nM | CC(NC(=O)c1cccnc1NCc1ccc(-c2ccc3ncnc(N)c3c2)s1)c1ccc(F)c(F)c1 (stereo not drawn) [Example 3.19, 2-({[5-(4-aminoquinazolin-6-yl)thiophen-2-yl]methyl}amino)-N-[1-(3,4-difluorophenyl)ethyl] pyridine-3-carboxamide (TFA salt)]
< 100 nM | < 1000 nM | – | – | – | Cn1cnc2cnc3ccc(-c4ccc(CNc5ncc(C#N)nc5C(=O)NCc5ccc(F)cc5)s4)cc3c21 [Example 3.82, 6-cyano-N-(4-fluorobenzyl)-3-(((5-(1-methyl-1H-imidazo [4,5-c]quinolin-8-yl)thiophen-2-yl)methyl)amino)pyrazine-2-carboxamide (TFA salt)]
100 to 1000 nM | 1000 to 10000 nM | – | – | – | Nc1ncnc2ccc(-c3ccc(CNc4ncccc4C(=O)NCc4ccccc4)s3)cc12 [Example 3.56, 2-({[5-(4-aminoquinazolin-6-yl)thiophen-2-yl]methyl}amino)-N-benzylpyridine-3-carboxamide (TFA salt)]
– | – | 100 to 1000 nM | > 10000 nM | – | Nc1n[nH]c2ncc(-c3ccc(CNc4ncc(C(F)(F)F)cc4C(=O)N[C@H](CO)c4ccc(F)cc4)cc3)cc12 [Example 266]
– | – | < 100 nM | > 10000 nM | – | CC(C)Oc1cc(CNc2ncccc2C(=O)NCc2ccc(F)c(F)c2)cc(-c2c[nH]c3ncc(-c4ccc[nH]4)cc23)c1 [Example 335, 2-(3-(5-(1H-pyrrol-2-yl)-1H-pyrrolo[2,3-b]pyridin-3-yl)-5-isopropoxybenzylamino)-N-(3,4-difluorobenzyl) nicotinamide]
– | – | < 100 nM | < 1000 nM | – | N#Cc1cnc(NCc2ccc(-c3cnc4[nH]ncc4c3)cc2)c(C(=O)NCc2ccc(F)cc2)c1 [Example 397, 5-Cyano-N-(4-fluoro-benzyl)-2-[4-(1H-pyrazolo[3,4-b]pyridin-5-yl)-benzylamino]-nicotinamide]
– | – | < 100 nM | < 1000 nM | – | CC(=O)Nc1ccc(-c2ccc(CNc3ncc(C#N)cc3C(=O)N[C@@H](C)c3ccc(F)cc3)cc2)cn1 [Example 105, (S)-2-(4-(6-acetamido-pyridin-3-yl)benzylamino)-5-cyano-N-(1-(4-fluorophenyl)ethyl) nicotinamide]
